Legend:
[1] = Solubility test for common agro actives; settings: 14% w/w analyte/solvent, 30° C., vortex and ultrasound
Description: Solubility test (for common agro actives) was carried out at the working concentration of 14% w/w analyte/solvent, initially in traditional solvents and then in our selected solvents, at 30° C. and assisted by vortex and ultrasound.

[2] = Wetted area of droplets on a paper sheet (pure systems); assay type: physicochemical; settings: 5 μL drop
Description: (§1) A general procedure was developed to evaluate the wetted area of droplets. The test system was prepared with 1% of the eutectic products in water, and a miscible dye, which allowed the visualization of the wetted area droplets. To compare the ability of the pure systems to a known adjuvant, TX (Triton X-100), a nonionic surfactant that has a hydrophilic polyethylene oxide chain with, on average, 9.5 ethylene oxide units) was used and was prepared under the same conditions and compared with a water/dye blank.

[3] = Wetted area on a paper sheet (mixture systems with TX); assay type: physicochemical
Description: as §1
With the results from the pure systems on paper and a waxy leaf shown in tables 1 and 2, a subsequent test was performed wherein mixtures of the products of the present invention with TX were compared on a paper sheet. Mixtures comprising TX and the products under study were evaluated at 0.9, 0.75, 0.50, 0.25, and 0.10% (1% total concentration). […] Compared to TX/water, the mixture with TX/BOA (50/50%) increased the wetted area by around 190%, systems with TX/BOA and TX/BOA (75/25%) increased the wetted area by around 180%, while TX/BOA (25/75%) increased the wetted area by around 150% (see Table 3).

[4] = system: waxy leaves of Epipremnum aureum; assay: Wetted area of droplets on waxy leaves; assay type: physicochemical
Description: as §1
In a subsequent experiment, the wetted area of droplets was tested on waxy leaves of Epipremnum aureum. The quantitative results of those tests appear in Table 2.

[5] = Evaporation time measurements; assay type: physicochemical; settings: 5 μL drop of 1% solution in H2O, glass slide, room temperature
Description: Evaporation time was analyzed after applying 5 μL (one drop) of a 1% solution in water, on a glass slide at room temperature.

[6] = Component A TX 0.1% + Component B 0.9%
[7] = Component A TX 0.25% + Component B 0.75%
[8] = Component A TX 0.5% + Component B 0.5%
[9] = Component A TX 0.75% + Component B 0.25%
[10] = Component A TX 0.9% + Component B 0.1%

## CCNc1nc(Cl)nc(NC(C)(C)C)n1 [Terbutylazine]
[1]
  Solubility in the selected solvents: Soluble in 9 of our tested solvents

## Triton X-100 [TX]
[2]; 1% in water
  Relative size (%) with reference to H2O: 424.82%
  Relative size (%) with reference to TX: 100.00%
[2]; 1% in water with dye
  Area: 23.98 mm^2
[3]; [6]
  Area: 18.05 mm^2
  Relative size (%) with reference to TX/H2O: 100.00%
[3]; [7]
  Area: 18.99 mm^2
  Relative size (%) with reference to TX/H2O: 100.00%
[3]; [8]
  Area: 17.78 mm^2
  Relative size (%) with reference to TX/H2O: 100.00%
[3]; [9]
  Area: 17.84 mm^2
  Relative size (%) with reference to TX/H2O: 100.00%
[3]; [10]
  Area: 15.81 mm^2
  Relative size (%) with reference to TX/H2O: 100.00%
[4]
  Relative size (%) with reference to H2O: 333.18%
  Relative size (%) with reference to TX: 100.00%
[5]
  Evaporation time: 19.73 min
  The relative evaporation time with reference to TX (min): 1.00

From patent publication US20240252418A1, “Additives (Adjuvants, Anti Freezing Agents, Antimicrobial and Antioxidants) in Natural Deep Eutectic Solvents and Mixtures” (Bioeutectics Corporation, priority 2023, published 2024)
